The test system of one assay is Ba/F3-EGFR-WT cells. Nature of the assay: Proliferation assay in BA/F3 (wild type) cells (Cell Titer-Glo). The format is cell-based. Conditions: Mus musculus. As for the experimental part:
(§1) Cellular Data Description (WT, insSVD, Ins ASV)
(§2) Plates were incubated at 37° C. for 48 h. Retrovirus was harvested by filtering the media supernatant through a 0.45 μm filter.
(§3) Ba/F3 cells purchased from DSMZ were grown in RPMI+10% FBS+10 ng/mL IL-3 and infected with filtered retroviral supernatant at a 1:2 dilution. Polybrene was added to a concentration of 8 μg/mL, plates were spun for 90 min, and incubated overnight at 37° C. 2 μg/mL puromycin was added to the infected cells 24 h after infection and cells were continually grown in the presence of puromycin and 10 ng/mL IL-3. Following stably expressing Ba/F3 cell lines were generated: Ba/F3-EGFR-WT, Ba/F3-EGFR-insSVD.
(§4) The cells ectopically expressing WT EGFR were plated with 10 ng/mL Millipore Culture grade EGF. The cells ectopically expressing EGFR-insSVD were plated without EGF.
(§5) 100 nL of compound was added to each well using a 100 nL pin head, and plates were incubated at 37° C. for 48 h.
(§6) Cell viability was measured by adding 30 μL of Cell Titer-Glo Luminescent Cell Viability Reagent. Plates were sealed with Perkin Elmer Top-Seal, inverted several times to mix, and immediately centrifuged at 1000 rpm for 2 min. Plates were incubated in low light conditions for 8-10 min and luminescence was measured.
On the technique in general: In ATP-based viability assays light output follows the ATP content of the culture.

The target in assay [1] is EGFR ins SVD (insertion of SVD between D770 and N771) (Homo sapiens, UniProt P00533, INS767SVD). Nature of the assay: Exon 20-Mutant-EGFR(D770_N771insSVD) kinase assay (TR-FRET). Type of assay: biochemical. The following applies: Table 9; read-out: mutEGFR (D770_N771insSVD) kinase assay IC50. (In TR-FRET formats the signal depends on donor and acceptor labels being close together.)
Experimental: Exon 20-Mutant-EGFR(D770_N771insSVD) Kinase Assay
Inhibitory activity of compounds of the present invention against an Epidermal Growth Factor Receptor (EGFR) with an insertion of the amino acids sequence SVD between D770 and N771 was quantified employing the TR-FRET based kinase activity assay as described in the following paragraphs.
For the assay 50 nl of a 100-fold concentrated solution of the test compound in DMSO was pipetted into either a black low volume 384 well microtiter plate or a black 1536 well microtiter plate (both Greiner Bio-One, Frickenhausen, Germany), 2 μl of a solution of EGFR in aqueous assay buffer [50 mM Hepes pH 7.0, 10 mM MgCl2, 1 mM dithiothreitol, 0.5 mM EGTA, 0.3 mM activated sodium ortho-vanadate, 0.005% (w/v) bovine serum albumin, 0.005% (v/v) Tween-20] were added and the mixture was incubated for 15 min at 22° C. to allow pre binding of the test compounds to the enzyme before the start of the kinase reaction. […] The concentration of EGFR was adjusted depending of the activity of the enzyme lot and was chosen appropriate to have the assay in the linear range, typical concentration was 15 pg/μl. The reaction was stopped by the addition of 3 μl of a solution of HTRF detection reagents (83.3 nM streptavidine-XL665 [Cisbio Bioassays, Codolet, France] and 1.67 nM PT66-Tb-Cryptate, a terbium-cryptate labelled anti-phospho-tyrosine antibody from Cisbio Bioassays [instead of the PT66 Tb cryptate PT66 Eu Chelate from Perkin Elmer can also be used]) in an aqueous EDTA-solution (133.3 mM EDTA, 0.2% (w/v) bovine serum albumin in 50 mM HEPES pH 7.5).
The resulting mixture was incubated 1 h at 22° C. to allow the binding of the biotinylated phosphorylated peptide to the streptavidine-XL665 and the PT66-Tb-Cryptate. Subsequently the amount of phosphorylated substrate was evaluated by measurement of the resonance energy transfer from the PT66-Tb-Cryptate to the streptavidine-XL665.

The next assay concerns Ba/F3-EGFR-insSVD cells. Nature of the assay: Proliferation assay in BA/F3 (ins SVD) cells (Cell Titer-Glo). Type of assay: cell-based. As for the experimental part:
as §1, §2, §3, §4, §5, §6

Setting [2] is: BaF3, 48 h, Table 10, plated with 10 ng/mL EGF.
[3] abbreviates: Mus musculus, BaF3, 48 h, Table 10, plated without EGF.
The mark [4] stands for this setting: Mus musculus, BaF3, Table 10, plated without EGF, 48 h.

Structures are written as SMILES. “And” between values parts separate entries of the source, which are not always exact repeats. Identical values can stand only once.

Broadly, the IC50 is the concentration at which inhibition is half-maximal.

EGFR ins SVD (insertion of SVD between D770 and N771), sequence (P00533 with tags, fused parts or gaps INS767SVD limits assumed): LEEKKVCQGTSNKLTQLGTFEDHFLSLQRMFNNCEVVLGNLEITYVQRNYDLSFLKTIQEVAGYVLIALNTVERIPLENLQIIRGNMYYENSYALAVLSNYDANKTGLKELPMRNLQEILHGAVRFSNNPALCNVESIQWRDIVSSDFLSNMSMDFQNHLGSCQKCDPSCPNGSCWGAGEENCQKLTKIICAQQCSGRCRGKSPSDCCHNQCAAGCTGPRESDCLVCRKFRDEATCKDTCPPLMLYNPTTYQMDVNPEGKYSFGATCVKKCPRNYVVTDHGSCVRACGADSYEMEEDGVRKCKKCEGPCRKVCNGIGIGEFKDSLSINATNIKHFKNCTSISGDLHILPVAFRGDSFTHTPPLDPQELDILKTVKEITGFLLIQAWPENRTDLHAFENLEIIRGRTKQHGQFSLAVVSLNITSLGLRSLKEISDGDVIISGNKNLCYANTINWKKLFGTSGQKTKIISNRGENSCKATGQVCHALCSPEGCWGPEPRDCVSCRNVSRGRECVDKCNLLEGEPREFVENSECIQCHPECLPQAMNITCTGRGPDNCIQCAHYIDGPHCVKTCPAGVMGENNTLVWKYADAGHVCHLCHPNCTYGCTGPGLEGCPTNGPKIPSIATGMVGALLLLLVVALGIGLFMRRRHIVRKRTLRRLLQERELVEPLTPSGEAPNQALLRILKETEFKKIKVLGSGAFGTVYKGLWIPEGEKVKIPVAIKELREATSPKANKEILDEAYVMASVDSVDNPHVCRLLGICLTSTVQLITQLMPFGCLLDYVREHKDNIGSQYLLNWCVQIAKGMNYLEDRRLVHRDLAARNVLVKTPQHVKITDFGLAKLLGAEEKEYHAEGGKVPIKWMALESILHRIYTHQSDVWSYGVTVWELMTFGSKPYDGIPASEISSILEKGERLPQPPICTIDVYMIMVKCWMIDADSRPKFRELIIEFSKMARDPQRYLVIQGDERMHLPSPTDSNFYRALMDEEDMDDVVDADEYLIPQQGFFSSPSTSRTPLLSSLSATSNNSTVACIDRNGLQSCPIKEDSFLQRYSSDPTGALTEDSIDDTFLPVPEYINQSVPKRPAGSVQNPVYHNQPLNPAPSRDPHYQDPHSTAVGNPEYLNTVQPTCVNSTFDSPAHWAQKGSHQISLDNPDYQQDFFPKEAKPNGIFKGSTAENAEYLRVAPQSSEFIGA

With `COC(C)(C)COc1cnccc1-c1[nH]c2c(c1Nc1cccc(F)c1Br)C(=O)NCC2` [Example 37, 3-(2-bromo-3-fluoroanilino)-2-[3-(2-methoxy-2-methylpropoxy)pyridin-4-yl]-1,5,6,7-tetrahydro-4H-pyrrolo[3,2-c]pyridin-4-one], the concentration for half-maximal inhibition (IC50) is 583 nM with Ba/F3-EGFR-WT cells (setting [2]); 0.12 nM and 0.0795 nM and 0.107 nM and 0.0958 nM and < 0.0725 nM (2×) in assay [1]; 16 nM with Ba/F3-EGFR-insSVD cells (setting [3]).

Turning to `COc1c(Cl)cccc1Nc1c(-c2ccncc2OC[C@@H]2CCCN2CC(F)(F)F)[nH]c2c1C(=O)NCC2` [Example 95, 3-(3-chloro-2-methoxyanilino)-2-(3-{[(2S)-1-(2,2,2-trifluoroethyl)pyrrolidin-2-yl]methoxy}pyridin-4-yl)-1,5,6,7-tetrahydro-4H-pyrrolo[3,2-c]pyridin-4-one], the IC50 in the assay on Ba/F3-EGFR-WT cells (setting [2]) stood at 2370 nM; in assay [1], 0.187 nM; with Ba/F3-EGFR-insSVD cells (setting [3]), 141 nM.

For the compound `COC(C)(C)COc1cnccc1-c1[nH]c2c(c1Nc1ccccc1C(F)(F)F)C(=O)NCC2` [Example 42, 2-[3-(2-methoxy-2-methylpropoxy)pyridin-4-yl]-3-[2-(trifluoromethyl)anilino]-1,5,6,7-tetrahydro-4H-pyrrolo[3,2-c]pyridin-4-one], the IC50 amounted to 625 nM in the assay on Ba/F3-EGFR-WT cells (setting [2]), 0.19 nM in assay [1] and 72.9 nM in the assay with Ba/F3-EGFR-insSVD cells (setting [3]).

Take `COc1c(F)cccc1Nc1c(-c2ccncc2OCCC(C)(C)OC)[nH]c2c1C(=O)NCC2` [Example 57, 3-(3-fluoro-2-methoxyanilino)-2-[3-(3-methoxy-3-methylbutoxy)pyridin-4-yl]1,5,6,7-tetrahydro-4H-pyrrolo[3,2-c]pyridin-4-one]: the half-maximal inhibitory concentration (IC50) in the assay on Ba/F3-EGFR-WT cells (setting [2]) came to 535 nM; in assay [1] it was 0.228 nM; in the assay with Ba/F3-EGFR-insSVD cells (setting [3]), 14.7 nM.

In the case of `COc1c(F)cccc1Nc1c(-c2ccncc2OC(C)Cc2ccccc2)[nH]c2c1C(=O)NCC2` (stereo not shown) [Example 93, 3-(3-fluoro-2-methoxyanilino)-2-{3-[(1-phenylpropan-2-yl)oxy]pyridin-4-yl}-1,5,6,7-tetrahydro-4H-pyrrolo[3,2-c]pyridin-4-one], the results for the IC50 (with Ba/F3-EGFR-WT cells (setting [2]); in assay [1]; in the assay on Ba/F3-EGFR-insSVD cells (setting [3])) were 3680 nM, 0.277 nM and 468 nM, respectively.

With `COCCOc1cnccc1-c1[nH]c2c(c1Nc1cccc(Cl)c1OC)C(=O)NCC2` [Example 32, 3-(3-chloro-2-methoxyanilino)-2-[3-(2-methoxyethoxy)pyridin-4-yl]-1,5,6,7-tetrahydro-4H-pyrrolo[3,2-c]pyridin-4-one], the IC50 with Ba/F3-EGFR-WT cells (setting [2]) was 299 nM; in assay [1] it was 0.076 nM and < 0.0725 nM; in the assay with Ba/F3-EGFR-insSVD cells (setting [3]), 9.87 nM.

Consider `CN1CCC[C@H]1COc1cnccc1-c1[nH]c2c(c1Nc1cccc(Cl)c1OC(F)F)C(=O)NCC2` [Example 50, 3-[3-chloro-2-(difluoromethoxy)anilino]-2-(3-{[(2S)-1-methylpyrrolidin-2-yl]methoxy}pyridin-4-yl)-1,5,6,7-tetrahydro-4H-pyrrolo[3,2-c]pyridin-4-one], for which the figures for the 50% inhibitory concentration (IC50) (in the assay with Ba/F3-EGFR-WT cells (setting [2]); in assay [1]; in the assay with Ba/F3-EGFR-insSVD cells (setting [3])) were 2100 nM, 1.26 nM and 60.9 nM, respectively.

As for `COCCOc1cnccc1-c1[nH]c2c(c1Nc1ccccc1C(F)(F)F)C(=O)NCC2` [Example 47, 2-[3-(2-methoxyethoxy)pyridin-4-yl]-3-[2-(trifluoromethyl)anilino]-1,5,6,7-tetrahydro-4H-pyrrolo[3,2-c]pyridin-4-one], the concentration for half-maximal inhibition (IC50) turned out to be 3240 nM in the assay with Ba/F3-EGFR-WT cells (setting [2]), 0.169 nM in assay [1] and 448 nM in the assay on Ba/F3-EGFR-insSVD cells (setting [3]).

As for `COc1c(Cl)cccc1Nc1c(-c2ccncc2OCCN(C)C)[nH]c2c1C(=O)NCC2` [Example 54, 3-(3-chloro-2-methoxyanilino)-2-{3-[2-(dimethylamino)ethoxy]pyridin-4-yl}-1,5,6,7-tetrahydro-4H-pyrrolo[3,2-c]pyridin-4-one], the concentration for half-maximal inhibition (IC50) came out at 1300 nM with Ba/F3-EGFR-WT cells (setting [2]), 0.912 nM in assay [1] and 37.5 nM in the assay on Ba/F3-EGFR-insSVD cells (setting [3]).

For `COC(C)(C)COc1cnccc1-c1[nH]c2c(c1Nc1cccc(F)c1C#N)C(=O)NCC2` [Example 94, 2-fluoro-6-({2-[3-(2-methoxy-2-methylpropoxy)pyridin-4-yl]-4-oxo-4,5,6,7-tetrahydro-1H-pyrrolo[3,2-c]pyridin-3-yl}amino)benzonitrile], the IC50 in the assay with Ba/F3-EGFR-WT cells (setting [2]) amounted to 4620 nM; in assay [1], 0.228 nM; with Ba/F3-EGFR-insSVD cells (setting [3]) it was 54.9 nM.

On to `COC(C)(C)COc1cnccc1-c1[nH]c2c(c1Nc1cccc(Cl)c1Br)C(=O)NCC2` [Example 78, 3-(2-bromo-3-chloroanilino)-2-[3-(2-methoxy-2-methylpropoxy)pyridin-4-yl]-1,5,6,7-tetrahydro-4H-pyrrolo[3,2-c]pyridin-4-one], for which the half-inhibitory concentration (IC50) was 583 nM in the assay with Ba/F3-EGFR-WT cells (setting [2]); < 0.0725 nM and 0.0736 nM in assay [1]; 16 nM in the assay with Ba/F3-EGFR-insSVD cells (setting [3]).

For `COc1c(Cl)cccc1Nc1c(-c2ccncc2OCCOC(C)(C)C)[nH]c2c1C(=O)NCC2` [Example 87, 2-[3-(2-tert-butoxyethoxy)pyridin-4-yl]-3-(3-chloro-2-methoxyanilino)-1,5,6,7-tetrahydro-4H-pyrrolo[3,2-c]pyridin-4-one], the IC50 came out at 1060 nM in the assay on Ba/F3-EGFR-WT cells (setting [2]), 0.204 nM in assay [1] and 34.4 nM in the assay on Ba/F3-EGFR-insSVD cells (setting [3]).

For `COc1c(Nc2c(-c3ccncc3OCCN(C)CC(F)(F)F)[nH]c3c2C(=O)NCC3)ccc(F)c1Cl` [Example 96, 3-(3-chloro-4-fluoro-2-methoxyanilino)-2-(3-{2-[methyl(2,2,2-trifluoroethyl)amino]ethoxy}pyridin-4-yl)-1,5,6,7-tetrahydro-4H-pyrrolo[3,2-c]pyridin-4-one], the IC50 in the assay with Ba/F3-EGFR-WT cells (setting [2]) was 1470 nM; in assay [1], 0.305 nM; in the assay with Ba/F3-EGFR-insSVD cells (setting [3]), 49.6 nM.

For the compound `O=C1NCCc2[nH]c(-c3ccncc3OCCN3CCOCC3)c(Nc3cccc(Cl)c3OC(F)F)c21` [Example 81, 3-[3-chloro-2-(difluoromethoxy)anilino]-2-{3-[2-(morpholin-4-yl)ethoxy]pyridin-4-yl}-1,5,6,7-tetrahydro-4H-pyrrolo[3,2-c]pyridin-4-one], the 50% inhibitory concentration (IC50) was found to be 4190 nM in the assay on Ba/F3-EGFR-WT cells (BaF3, Table 10, plated with 10 ng/mL EGF, 48 h); 0.441 nM in assay [1]; 405 nM in the assay on Ba/F3-EGFR-insSVD cells (setting [4]).

Turning to `COc1c(Cl)cccc1Nc1c(-c2ccncc2OC[C@@H]2CCCO2)[nH]c2c1C(=O)NCC2` [Example 66, 3-(3-chloro-2-methoxyanilino)-2-(3-{[(2S)-oxolan-2-yl]methoxy}pyridin-4-yl)-1,5,6,7-tetrahydro-4H-pyrrolo[3,2-c]pyridin-4-one], the figures for the IC50 (in assay [1]; in the assay with Ba/F3-EGFR-insSVD cells (setting [4])) were 0.0932 nM and 4.6 nM, respectively.

In the case of `COc1c(Cl)cccc1Nc1c(-c2ccncc2OC[C@H]2CCCO2)[nH]c2c1C(=O)NCC2` [Example 67, 3-(3-chloro-2-methoxyanilino)-2-(3-{[(2R)-oxolan-2-yl]methoxy}pyridin-4-1)-1,5,6,7-tetrahydro-4H-pyrrolo[3,2-c]pyridin-4-one], the half-maximal inhibitory concentration (IC50) in assay [1] came out at 0.0908 nM; in the assay with Ba/F3-EGFR-insSVD cells (setting [4]), 9.33 nM.

Consider `COC(C)(C)COc1cnccc1-c1[nH]c2c(c1Nc1cccc(F)c1C)C(=O)NCC2` [Example 21, 3-[(3-fluoro-2-methylphenyl)amino]-2-[3-(2-methoxy-2-methylpropoxy)pyridin-4-yl]-1,5,6,7-tetrahydro-4H-pyrrolo[3,2-c]pyridin-4-one], for which the concentration for half-maximal inhibition (IC50) in the assay with Ba/F3-EGFR-WT cells (setting [2]) is 251 nM; with Ba/F3-EGFR-insSVD cells (setting [3]), 8.81 nM; with Ba/F3-EGFR-insSVD cells (Table 10, plated without EGF, 48 h), 7.48 nM and < 4.78 nM and 6.8 nM and 7.49 nM.

These data come from patent US11339157B1, “4H-pyrrolo[3,2-c]pyridin-4-one derivatives” (Bayer Aktiengesellschaft, priority 2017, dated 2022).
